Results: ChEMBL document CHEMBL4340547, “Synthesis and SAR development of quinoline analogs as novel P2X7 receptor antagonists” (Bioorg Med Chem Lett, 2019)

Assays:
[1] = Intrinsic clearance in human liver microsomes; assay type: ADME, Microsome; conditions: read-out: CLH
[2] = Unbound brain to plasma concentration ratio in mouse at 5 mg/kg, po; assay type: ADME, organism-based; conditions: read-out: K(p,uu,brain)
P2X purinoceptor 7 [3] = biological target: T1, P2X purinoceptor 7 (Homo sapiens, UniProt Q99572); test: Antagonist activity at human P2X7 receptor expressed in HEK293 cells assessed as inhibition of BzATP-induced YO PRO dye uptake preincubated for 20 mins followed by YO PRO dye and BzATP addition measured after 30 mins by fluorescence assay; assay type: cell-based
T1 sequence (Q99572 whole entry): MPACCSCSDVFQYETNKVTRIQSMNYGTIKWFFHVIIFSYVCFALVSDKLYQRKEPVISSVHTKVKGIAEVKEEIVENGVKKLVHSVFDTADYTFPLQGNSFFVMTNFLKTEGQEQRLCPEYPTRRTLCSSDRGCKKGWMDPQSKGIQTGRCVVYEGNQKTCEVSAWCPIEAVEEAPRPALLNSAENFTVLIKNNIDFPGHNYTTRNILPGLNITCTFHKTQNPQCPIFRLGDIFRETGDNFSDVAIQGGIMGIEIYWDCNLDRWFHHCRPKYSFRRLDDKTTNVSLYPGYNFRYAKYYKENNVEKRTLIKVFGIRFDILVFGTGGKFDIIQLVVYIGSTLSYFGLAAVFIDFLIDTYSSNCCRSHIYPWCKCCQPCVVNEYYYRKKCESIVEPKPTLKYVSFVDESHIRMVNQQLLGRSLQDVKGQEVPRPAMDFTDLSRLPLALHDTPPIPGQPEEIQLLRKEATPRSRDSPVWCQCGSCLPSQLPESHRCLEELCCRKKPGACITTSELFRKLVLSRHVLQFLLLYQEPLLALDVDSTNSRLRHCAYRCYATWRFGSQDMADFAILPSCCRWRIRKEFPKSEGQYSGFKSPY

P2X purinoceptor 7 [4] = biological target: T1, P2X purinoceptor 7; test: Antagonist activity at P2X7R in LPS-stimulated human THP1 cells assessed as inhibition of BzATP-induced IL-1beta release preincubated for 30 mins followed by BzATP stimulation and measured after 30 mins by sandwich ELISA
[5] = Intrinsic clearance in mouse liver microsomes; assay type: ADME, Microsome; conditions: read-out: CLH
[6] = Intrinsic clearance in rat liver microsomes; assay type: ADME, Microsome; conditions: read-out: CLH
MDR [7] = test: Apparent permeability across apical to basolateral side in MDCK cells expressing MDR; assay type: ADME, cell-based, Canis lupus familiaris; conditions: dog, MDCK-MDR1
MDR [8] = test: Efflux ratio of apparent permeability in MDCK cells expressing MDR; assay type: ADME, cell-based, Canis lupus familiaris; conditions: dog, MDCK-MDR1
P2X purinoceptor 7 [9] = biological target: T2, P2X purinoceptor 7 (Rattus norvegicus, UniProt Q64663); test: Antagonist activity at rat P2X7 receptor assessed as inhibition of BzATP-induced YO PRO dye uptake preincubated for 20 mins followed by YO PRO dye and BzATP addition measured after 30 mins by fluorescence assay
T2 sequence (Q64663 whole entry): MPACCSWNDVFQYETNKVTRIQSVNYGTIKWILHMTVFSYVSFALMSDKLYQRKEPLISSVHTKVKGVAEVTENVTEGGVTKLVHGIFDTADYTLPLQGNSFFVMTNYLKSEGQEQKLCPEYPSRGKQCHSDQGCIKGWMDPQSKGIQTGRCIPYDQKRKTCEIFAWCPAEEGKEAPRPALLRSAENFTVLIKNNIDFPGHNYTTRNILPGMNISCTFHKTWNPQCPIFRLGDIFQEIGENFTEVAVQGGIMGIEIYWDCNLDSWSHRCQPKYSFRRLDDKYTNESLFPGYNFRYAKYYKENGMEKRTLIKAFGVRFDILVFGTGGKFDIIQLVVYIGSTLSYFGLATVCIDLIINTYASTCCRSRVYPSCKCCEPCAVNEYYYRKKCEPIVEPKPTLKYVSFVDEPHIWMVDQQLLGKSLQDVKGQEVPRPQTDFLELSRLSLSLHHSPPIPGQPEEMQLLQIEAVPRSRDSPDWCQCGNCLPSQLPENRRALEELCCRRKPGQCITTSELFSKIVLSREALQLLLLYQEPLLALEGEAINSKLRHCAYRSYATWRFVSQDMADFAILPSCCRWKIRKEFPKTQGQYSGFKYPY

P2X purinoceptor 7 [10] = biological target: T3, P2X purinoceptor 7 (Mus musculus, UniProt Q9Z1M0); test: Antagonist activity at mouse P2X7 receptor assessed as inhibition of BzATP-induced YO PRO dye uptake preincubated for 20 mins followed by YO PRO dye and BzATP addition measured after 30 mins by fluorescence assay
T3 sequence (Q9Z1M0 whole entry): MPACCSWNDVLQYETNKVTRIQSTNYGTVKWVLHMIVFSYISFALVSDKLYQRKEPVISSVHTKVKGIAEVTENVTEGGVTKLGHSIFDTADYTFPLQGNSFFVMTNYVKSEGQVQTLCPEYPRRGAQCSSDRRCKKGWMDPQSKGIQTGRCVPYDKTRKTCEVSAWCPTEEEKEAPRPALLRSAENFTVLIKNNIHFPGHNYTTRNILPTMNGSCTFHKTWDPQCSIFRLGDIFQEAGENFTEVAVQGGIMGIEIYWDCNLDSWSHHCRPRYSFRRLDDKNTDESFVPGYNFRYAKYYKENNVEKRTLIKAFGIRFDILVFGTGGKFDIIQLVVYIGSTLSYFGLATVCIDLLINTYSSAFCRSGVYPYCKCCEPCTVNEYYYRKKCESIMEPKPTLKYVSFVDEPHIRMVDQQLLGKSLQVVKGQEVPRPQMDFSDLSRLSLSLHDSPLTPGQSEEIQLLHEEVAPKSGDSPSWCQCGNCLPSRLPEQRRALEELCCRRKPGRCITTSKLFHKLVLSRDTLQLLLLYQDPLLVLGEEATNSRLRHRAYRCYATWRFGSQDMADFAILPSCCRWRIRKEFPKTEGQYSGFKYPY

[11] = biological target: Voltage-gated inwardly rectifying potassium channel KCNH2 (Homo sapiens, UniProt Q12809); test: Activity at human ERG
Chain of Voltage-gated inwardly rectifying potassium channel KCNH2 (Q12809 whole entry): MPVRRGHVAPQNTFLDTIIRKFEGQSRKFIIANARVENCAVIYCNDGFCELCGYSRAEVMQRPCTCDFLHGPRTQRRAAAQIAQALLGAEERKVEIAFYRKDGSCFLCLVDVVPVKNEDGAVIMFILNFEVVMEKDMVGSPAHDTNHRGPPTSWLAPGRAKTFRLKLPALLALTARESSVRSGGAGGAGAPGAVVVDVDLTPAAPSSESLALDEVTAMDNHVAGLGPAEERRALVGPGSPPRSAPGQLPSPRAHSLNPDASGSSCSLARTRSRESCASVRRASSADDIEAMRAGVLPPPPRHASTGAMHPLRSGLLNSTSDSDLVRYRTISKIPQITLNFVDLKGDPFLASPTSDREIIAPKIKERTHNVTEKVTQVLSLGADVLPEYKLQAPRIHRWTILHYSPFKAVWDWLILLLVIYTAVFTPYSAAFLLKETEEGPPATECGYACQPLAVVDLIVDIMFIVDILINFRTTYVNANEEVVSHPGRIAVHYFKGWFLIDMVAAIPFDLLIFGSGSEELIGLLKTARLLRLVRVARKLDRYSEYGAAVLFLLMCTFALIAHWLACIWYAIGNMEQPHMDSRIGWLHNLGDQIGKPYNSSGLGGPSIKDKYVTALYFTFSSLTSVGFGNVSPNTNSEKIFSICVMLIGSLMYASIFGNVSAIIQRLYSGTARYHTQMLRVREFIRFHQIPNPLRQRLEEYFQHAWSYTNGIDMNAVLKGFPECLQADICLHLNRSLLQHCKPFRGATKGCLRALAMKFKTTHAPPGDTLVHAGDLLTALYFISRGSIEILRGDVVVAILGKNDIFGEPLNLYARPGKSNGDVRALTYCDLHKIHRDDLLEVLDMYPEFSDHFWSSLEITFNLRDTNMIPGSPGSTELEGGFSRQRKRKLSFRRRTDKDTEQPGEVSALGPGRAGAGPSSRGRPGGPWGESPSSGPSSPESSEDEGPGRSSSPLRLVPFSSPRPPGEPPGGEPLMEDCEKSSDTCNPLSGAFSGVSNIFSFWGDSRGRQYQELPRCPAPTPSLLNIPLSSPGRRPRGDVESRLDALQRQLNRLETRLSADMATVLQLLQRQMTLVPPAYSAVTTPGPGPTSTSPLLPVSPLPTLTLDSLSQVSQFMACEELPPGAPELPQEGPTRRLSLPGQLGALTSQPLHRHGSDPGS

[12] = Protein binding in human plasma assessed as unbound fraction; assay type: ADME, cell-free
[13] = Protein binding in mouse plasma assessed as unbound fraction; assay type: ADME, cell-free
[14] = Protein binding in rat plasma assessed as unbound fraction; assay type: ADME, cell-free
[15] = Dose normalized AUC in mouse at 0.5 mg/kg, po; assay type: ADME, organism-based; conditions: in vivo
[16] = Dose normalized AUC in mouse at 0.2 mg/kg, iv; assay type: ADME, organism-based; conditions: in vivo
[17] = Dose normalized Cmax in mouse at 0.5 mg/kg, po; assay type: ADME, organism-based; conditions: in vivo
[18] = Dose normalized Cmax in mouse at 0.2 mg/kg, iv; assay type: ADME, organism-based; conditions: in vivo
[19] = Terminal half life in mouse at 0.2 mg/kg, iv or 0.5 mg/kg, po; assay type: ADME, organism-based; conditions: in vivo, read-out: beta t1/2 (converted)
[20] = Clearance in mouse at 0.2 mg/kg, iv or 0.5 mg/kg, po; assay type: ADME, organism-based; conditions: in vivo
[21] = Volume of distribution in mouse at 0.2 mg/kg, iv or 0.5 mg/kg, po; assay type: ADME, organism-based; conditions: in vivo
[22] = Oral bioavailability in mouse at 0.5 mg/kg; assay type: ADME, organism-based; conditions: in vivo
[23] = AUC in mouse plasma at 5 mg/kg, po; assay type: ADME, organism-based
[24] = AUC in mouse brain at 5 mg/kg, po; assay type: ADME, organism-based
[25] = Protein binding in mouse plasma assessed as unbound fraction at 5 mg/kg, po; assay type: ADME, organism-based
[26] = Protein binding in mouse brain assessed as unbound fraction at 5 mg/kg, po; assay type: ADME, organism-based
[27] = Protein binding in human plasma; assay type: ADME, cell-free; conditions: read-out: PPB
[28] = Protein binding in mouse plasma; assay type: ADME, cell-free; conditions: read-out: PPB
[29] = Protein binding in rat plasma; assay type: ADME, cell-free; conditions: read-out: PPB

microsomal CLint [1]: 20 µL/min/mg | Kp uu [2]: 0.13 | IC50 (P2X purinoceptor 7 [3]): 0.018 µM | IC50 (P2X purinoceptor 7 [4]): 0.0267 µM | microsomal CLint [5]: 34 µL/min/mg | microsomal CLint [6]: 23 µL/min/mg | Papp A→B (MDR [7]): 8.9 to 9 ×10⁻⁶ cm/s | efflux ratio (MDR [8]): 6.3 | IC50 (P2X purinoceptor 7 [9]): 9.4 µM | IC50 (P2X purinoceptor 7 [10]): 6.73 µM | fraction unbound [12]: 0.098 | fraction unbound [13]: 0.079 | fraction unbound [14]: 0.089 | AUC/dose [15]: 143 ng·h/mL | AUC/dose [16]: 451 ng·h/mL | Cmax/dose [17]: 160 ng/mL | Cmax/dose [18]: 738 ng/mL | half-life [19]: 25.8 min | clearance [20]: 36.8 mL/min/kg | Vd [21]: 1.19 L/kg | bioavailability [22]: 32% | AUC [23]: 136 ng·h/mL | AUC [24]: 12.6 ng·h/mL | fraction unbound [25]: 0.079 | fraction unbound [26]: 0.11 | fraction unbound [27]: 0.03 to 0.1 | fraction unbound [28]: 0.03 to 0.1 | fraction unbound [29]: 0.03 to 0.1
Structure (SMILES): O=C(NCC1(O)CCCC(F)(F)C1)c1c(Cl)ccc2nc(N3CC[C@H](F)C3)ccc12 (some centres undefined)
Activity [11]: > 30 µM
